A short description of data set [1]: in vivo. The note with it: mouse, female ICR mice of 5 weeks.
Data set [2] deals with EMT-6 tumor cells. Description: Radiosensitization effect on tumor transplanted in animal (ER in vivo). Also on record: species or system male Bal/c mouse. To be noted: EMT-6 tumor in mouse, 100 mg/kg intraperitoneal, X-ray after 40 minutes at 450 rad/min. for 5 minutes. The protocol: Radiosensitization effect on tumor transplanted in animal (ER in vivo)
To both thighs of male Bal/c mouse (8 weeks; 4 mice in a group), 10^5 of EMT-6 tumor cells were subcutaneously inoculated. After the diameter of the tumor reached about 1 cm, a solution of a compound to be examined in saline in an amount of 100 mg of the compound per kg was intraperitonealy administered. After 40 minutes, X-ray was irradiated at 450 rad/min. for 5 minutes and then the mouse was sacrificed.
After the whol body of the mouse was sterilized with 70% ethanol, the tumor was taken out. The tissue was homogenized and then digested by stirring for 50 minutes at 37° C. with adding 22 ml of trypsin. The number of cells in the supernatant was counted. A predetermined amount of the cells was introduced in a plastic plate having a diameter of about 5 cm. To the plate, 5 ml of medium was added and cultured in a CO2 incubator. The plate containing the irradiated cells was removed from the incubator after 9 days, while a comparison dish containing unirradiated cells was incubated for 10 days. The cells were fixed by methanol and strained by Giemsa stain. Then, the number of colonies formed were counted.
The survival rate was calculated with using the data of the unirradiated cells as control.

Data set [3] concerns Chinese hamster V-79 cells. Description: Radiosensitization effect on cells (ER in vitro). It counts as cell-based. The note with it: 1.0 mM, 60 min at 37° C., nitrogen (hypoxic), X-ray 1.6 Gy/min. The protocol: Radiosensitization effect on cells (ER in vitro)
A solution of a predetermined concentration (1.0 mM) of a compound to be examined in a medium was added to the dish. After standing for 60 minutes at 37° C., the dish was placed in a closed vessel at room temperature.
After the irradiation, the cells were washed with phosphate buffer and digested with trypsin into single cells. Then, a predetermined amount of the cells was introduced into 5 ml of a culture medium in a culture dish and cultured for 7 days at 37° C. After staining and washing with water, the number of colonies formed was counted.
For comparison, the irradiation was carried out in the nitrogen atmosphere or in the air after adding the medium without the test compound.

For data set [4], the system named is hypoxic cells. To be noted: compared with no Misonidazole; cited from earlier work.
The conditions of data set [5]: administered in human beings; cited from earlier work.
For data set [6] the following is noted: hardly administered in an effective amount; cited from earlier work.

A value given as a limit tells only on which side of the number the result lay.

In data set [1], `COC(=O)OCCNC(=O)C(F)(F)Cn1ccnc1[N+](=O)[O-]` [(51), methyl 3-(2'-nitroimidazolyl)-2,2-difluoropropionamidoethoxyformate] had an LD50 of over 3000 mg/kg.
Regarding `NC(=O)C(F)(F)CNC(=O)C(F)(F)Cn1ccnc1[N+](=O)[O-]` [(24), 3-[3'-(2"-nitroimidazolyl)-2',2'-difluoropropionylamino]-2,2-difluoropropionic acid amide], the ER in vivo in data set [2] amounted to 1.41. Further, the LD50 in data set [1] turned out to be 2600 mg/kg. In data set [3], the ER in vitro stood at 1.76.
On to `O=C(COCC(F)(F)Cn1ccnc1[N+](=O)[O-])NO` [(44)], for which the ER in vivo in data set [2] worked out at 1.48. In addition, the ER in vitro in data set [3] stood at 1.68.
With `O=[N+]([O-])c1nccn1CC(F)COCC(O)CO` (stereo not drawn) [(1), 1-(2'-fluoro-4'-oxa-6',7'-dihydroxyheptyl)-2-nitroimidazole], in data set [2], the ER in vivo is on record as 1.38. This compound also returned an LD50 in data set [1] of 2700 mg/kg. Further, in data set [3], the ER in vitro was 1.49.
Take `COCC(O)Cn1ccnc1[N+](=O)[O-]` (stereo not drawn) [Comparative (1), 1-(2-Nitro-1-imidazolyl)-3-methoxy-2-propanol]: the ER in vivo in data set [2] worked out at 1.43. Also, the “hypoxic cell sensitizing effectiveness” value in data set [4] is “about twice as effective as when no Misonidazole is used”. The “sensitizing effect in human beings” value in data set [5] is “No sensitizing effect was confirmed”. Further, in data set [6], the neurotoxicity result is “strong neurotoxicity”. Besides, the ER in vitro in data set [3] is reported as 1.50.
In the case of `NC(=O)CNC(=O)C(F)(F)Cn1ccnc1[N+](=O)[O-]` [(48)], the ER in vivo in data set [2] turned out to be 1.49. The same compound gave an LD50 in data set [1] of 2200 mg/kg. In addition, the ER in vitro in data set [3] turned out to be 1.61.
The like results for `NC(=O)CCNC(=O)C(F)(F)Cn1ccnc1[N+](=O)[O-]` [(22), 3-[3'-(2"-nitroimidazolyl)-2',2'-difluoropropionylamino]propionic acid amide] were, in that order, 1.58, 2800 mg/kg and 1.46.
The like results for `NC(=O)C(F)(F)Cn1ccnc1[N+](=O)[O-]` [(28), 3-(2'-nitroimidazolyl)-2,2-difluoropropionic acid amide] were, in that order, 1.32, 1100 mg/kg and 1.48.
For `O=C(COCC(F)(F)Cn1ccnc1[N+](=O)[O-])NCCO` [(43), 2[3'-(2"-nitroimidazolyl)-2',2'-difluoropropoxy]acetic acid hydroxyethylamide], in data set [2], the ER in vivo is reported as 1.38. The compound further yielded an LD50 in data set [1] of over 2000 mg/kg. Besides, in data set [3], the ER in vitro was 1.54.
Take `O=[N+]([O-])c1nccn1CC(F)COCCO` (stereo not drawn) [(11), 1-(2'-fluoro-4'-oxa-6'-hydroxyhexcyl)-2-nitroimidazole]: the ER in vivo in data set [2] was determined as 1.52. Moreover, the ER in vitro in data set [3] is reported as 1.66.
For the compound `O=C(NCCO)C(F)(F)COCC(F)(F)Cn1ccnc1[N+](=O)[O-]` [(45), 3-[3'-(2"-nitroimidazolyl)-2',2'-difluoropropoxy]-2,2-difluoropropionic acid hydroxyethylamide], the ER in vivo in data set [2] worked out at 1.40. In data set [1], this compound yielded a median lethal dose (LD50) of over 1600 mg/kg. For the same compound, in data set [3], the ER in vitro is 1.63.
For the compound `NC(=O)C(F)(F)COCC(F)(F)Cn1ccnc1[N+](=O)[O-]` [(46), 3-[3'-(2"-nitroimidazolyl)-2',2'-difluoropropoxy]2,2-difluoropropionylamide], the ER in vivo in data set [2] is 1.45. For the same compound, the ER in vitro in data set [3] is recorded as 1.58.
As for `O=C(CCNC(=O)C(F)(F)Cn1ccnc1[N+](=O)[O-])NCCO` [(47), 3-[3'-(2"-nitroimidazolyl)-2',2'-difluoropropionamido]propionic acid hydroxyethylamide], in data set [2], the ER in vivo is listed as 1.38. The compound also returned a 50% lethal dose (LD50) in data set [1] of over 2000 mg/kg. In data set [3], the ER in vitro turned out to be 1.43.

A word on the LD50: it is the dose expected to kill half of the subjects tested. Read a high LD50 as lower toxicity.

The values above are taken from patent US4977273A, “Fluorine-containing 2-nitroimidazole derivatives” (Kyoto University of Honmachi, priority 1988, dated 1990).
